The values that follow come from PMC9038204, “SNX27–Retromer directly binds ESCPE-1 to transfer cargo proteins during endosomal recycling” (PLoS Biology, 2022).

Test [1] deals with T1, mSNX27FL preincubated with competing peptide (Mus musculus, UniProt Q3UHD6).
T1 construct: DNA encoding full-length mouse SNX27 (mSNX27FL hereafter) was inserted into the pMCSG7 vector; made in house; host or cells: Escherichia coli BL21 CodonPlus (DE3)
Nature of the test: Competitive ITC of hSNX2 16-33 and hSNX1 75-92 with mSNX27FL. The test is classed as binding. As to conditions: 25°C. As to the method: All microcalorimetry experiments were conducted at 25°C using a PEAQ ITC (Malvern, UK) in 50 mM HEPES (pH 7.5), 200 mM NaCl, 5% glycerol, and 1 mM β-ME (ITC buffer). All proteins were purified by SEC using the same buffer prior to ITC experiments to avoid buffer mismatches. To measure binding of SNX27 to SNX1 proteins, 800 μM of hSNX27FERM was titrated into 20 μM of GST-mSNX1_1-139 or His-SNX1FL. For the binding of SNX1 and SNX2 peptides to SNX27, peptides were diluted 10-fold to 800 μM in ITC buffer peptides and titrated into 20 μM SNX27FL proteins containing the same 1:10 ratio of peptide buffer (100 mM Tris-HCl, pH 10.6). […] For ITC experiment using SNX1_75-92 against hSNX27 wild-type and single-site mutants, 600 μM SNX1_75-92 peptide was titrated into 20 μM hSNX27 proteins.
The ITC experiments were conducted with 1 injection of 0.4 μL followed by a series of 12 injections of 3.2 μL each with 180-second intervals and a stirring speed of 850 rpm. The heat exchange of interactions was obtained through integrating the observed peaks and background correction by subtracting the heats of dilution. Data were analyzed with Malvern software package by fitting and normalized data to a single-site binding model, yielding the thermodynamic parameters Kd, ΔH, ΔG, and −TΔS for all binding experiments. […]

Test [2] has as its system HeLa cells, surface GLUT1. Nature of the test: Surface biotinylation, cell surface level of GLUT1. The test is classed as cell-based. The procedure:
(§1) For western blotting, cells were lysed in PBS with 1% (v/v) Triton X-100 and protease inhibitor cocktail. The protein concentration was determined with a BCA assay kit (Thermo Fisher Scientific, USA), and equal amounts were resolved on NuPAGE 4% to 12% precast gels (Invitrogen, USA). Blotting was performed onto polyvinylidene fluoride membranes (Immobilon-FL; EMD Millipore, USA) followed by detection using the Odyssey infrared scanning system (LI-COR Biosciences, USA). For GFP-based immunoprecipitations, HEK-293T cells were lysed 48 hours after transfection in immunoprecipitation buffer (50 mM Tris-HCl, 0.5% (v/v) NP-40, and Roche protease inhibitor cocktail) and subjected to GFP trap (ChromoTek, Germany). Immunoblotting was performed using standard procedures. Detection was performed on an Odyssey infrared scanning system (LI-COR Biosciences) using fluorescently labeled secondary antibodies. In using the Odyssey, we routinely performed western blot analysis where a single blot is simultaneously probed with antibodies against 2 proteins of interest (distinct antibody species) followed by visualization with the corresponding secondary antibodies conjugated to distinct spectral dyes.
(§2) For surface biotinylation experiments, fresh Sulfo-NHS-SS Biotin (Thermo Fisher Scientific, #21217) was dissolved in ice-cold PBS at pH 7.8 at a final concentration of 0.2 mg/ml. Cells were washed twice in ice-cold PBS and placed on ice to slow down the endocytic pathway. Next, cells were incubated with the biotinylation reagent for 30 minutes at 4°C followed by incubation in TBS for 10 minutes to quench the unbound biotin. The cells were then lysed in lysis buffer and subjected to Streptavidin beads-based affinity isolation (GE Healthcare, USA).

For test [3], the system named is HeLa cells, surface ITGA5. The test is described as follows: Surface biotinylation, cell surface level of ITGA5. The test is classed as cell-based. As to the method:
as §1, §2

The target in another test is T2, hSNX27FL R498D (Homo sapiens, UniProt Q96L92, R498D).
T2 construct: FL, full-length; ITC, isothermal titration calorimetry; His-tag followed by a TEV cleavage site (N); made in house; host or cells: E. coli BL21 (DE3)
Nature of the test: ITC, hSNX1 peptide 75-92 against hSNX27FL R498D. The test is classed as binding. The note with it: 25°C, 600 μM SNX1_75-92 into 20 μM hSNX27FL R498D. An excerpt: (§3) For bacterial expression, full-length mouse SNX1 with an amino-terminal His-tag (mSNX1FL hereafter) was cloned into the pMW172Kan vector [75], and the truncated mSNX1 construct containing residues 1 to 139 was cloned into pGEX4T-2 vector for expression as a thrombin-cleavable amino-terminal GST fusion protein. DNA encoding full-length mouse SNX27 (mSNX27FL hereafter) was inserted into the pMCSG7 vector [76] by the ligation-independent cloning (LIC) approach. Human SNX27 constructs, hSNX27FL, hSNX27FERM, and hSNX27FL single-site mutants R437D, K495D, K496D, R498D, and K501D were cloned into the pET-28a vector by GenScript and codon optimized for bacterial protein expression. An additional TEV cleavage site was inserted between the amino-terminal His-tag and hSNX27 coding sequences.
(§4) All microcalorimetry experiments were conducted at 25°C using a PEAQ ITC (Malvern, UK) in 50 mM HEPES (pH 7.5), 200 mM NaCl, 5% glycerol, and 1 mM β-ME (ITC buffer). […]
(§5) The ITC experiments were conducted with 1 injection of 0.4 μL followed by a series of 12 injections of 3.2 μL each with 180-second intervals and a stirring speed of 850 rpm. […] Data were analyzed with Malvern software package by fitting and normalized data to a single-site binding model, yielding the thermodynamic parameters Kd, ΔH, ΔG, and −TΔS for all binding experiments. […]
For orientation: ITC needs no label: the signal is the heat of the interaction.

The target of a further test is T3, hSNX27FL K501D (Homo sapiens, UniProt Q96L92, K501D).
T3 construct: FL, full-length; ITC, isothermal titration calorimetry; His-tag followed by a TEV cleavage site (N); made in house; host or cells: E. coli BL21 (DE3)
The test is described as follows: ITC, hSNX1 peptide 75-92 against hSNX27FL K501D. The test is classed as binding. As to conditions: 25°C, 600 μM SNX1_75-92 into 20 μM hSNX27FL K501D.
Description: as §3, §4, §5

The next test deals with T4, hSNX27FL K495D (Homo sapiens, UniProt Q96L92, K495D).
T4 construct: FL, full-length; ITC, isothermal titration calorimetry; His-tag followed by a TEV cleavage site (N); made in house; host or cells: E. coli BL21 (DE3)
Nature of the test: ITC, hSNX1 peptide 75-92 against hSNX27FL K495D. The test is classed as binding. The note with it: 25°C, 600 μM SNX1_75-92 into 20 μM hSNX27FL K495D.
Description: as §3, §4, §5

Where [4] appears, read: relative to HeLa = 100, mean of n = 3, Fig. 6D.
The mark [5] stands for this setting: relative to HeLa = 100, replicate n1, Fig. 6D.
Where [6] appears, read: relative to HeLa = 100, replicate n2, Fig. 6D.
[7] abbreviates: relative to HeLa = 100, replicate n3, Fig. 6D.

Where no end group is shown, it is not given here.

Regarding TDFEDLEDGEDLFTSTVS [SNX2_16-33], the Kd entry in test [1] (hSNX2 16-33 titrated into mSNX27FL preincubated with 2-fold molar excess hSNX1 75-92) was “binding is blocked”; in test [1] (hSNX2 16-33 titrated into mSNX27FL preincubated with 2-fold molar excess hSNX1 75-92, listed as hSNX216-33), “No binding detected”.
Turning to +GFP-SNX1, the “cell surface GLUT1, Mean 2” value in test [2] (setting [4]) was found to be 89.92. The “cell surface GLUT1” value stood at 81.0353 in test [2] (setting [5]), 95.6847 in test [2] (setting [6]) and 93.0328 in test [2] (setting [7]). For the same substance, the “cell surface ITGa5, Mean 2” value in test [3] (setting [4]) is 94.91. For the same substance, the “cell surface ITGa5” value in test [3] (setting [5]) is on record as 92.6175; in test [3] (setting [6]), 101.027; in test [3] (setting [7]), 91.0806.
In the case of NGIHEEQDQEPQDLFADA [SNX1_75-92], the Kd entry on hSNX27FL R498D is “no detectable binding”; on hSNX27FL R498D (listed as hSNX175-92), “No binding detected”; on hSNX27FL K501D, “no detectable binding”; at hSNX27FL K501D (listed as hSNX175-92), “No binding detected”; at hSNX27FL K495D, “no detectable binding”; at hSNX27FL K495D (listed as hSNX175-92), “No binding detected”.
